Measured values published in publication PMC4450297, “Screening Active Compounds from Garcinia Species Native to China Reveals Novel Compounds Targeting the STAT/JAK Signaling Pathway” (BioMed Research International, 2015).
Read-outs that look alike come from different tables or passages of the source.

How the values were obtained:
Test in all cases: Cell panel screen (CellTiter-Glo)
Format in all cases: cell-based, human
[1] = test system: A498; settings: Homo sapiens, read-out: Percent Inhibition
In short: (§1)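 ATCC lines in supplier media with 10% FBS, seeded and cultured overnight at 37° C., then exposed to compound at 20 μM final for 72 h. CellTiter-Glo luminescence; % growth inhibition relative to DMSO-treated controls after subtracting cell-free background.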

[2] = test system: A704; settings: Homo sapiens, read-out: Percent Inhibition
In short: as §1

[3] = test system: BT-474; settings: Homo sapiens, read-out: Percent Inhibition
In short: as §1

[4] = test system: Bel-7402; settings: Homo sapiens, read-out: Percent Inhibition
In short: as §1

[5] = test system: C3A; settings: Homo sapiens, read-out: Percent Inhibition
In short: as §1

[6] = test system: C8166; settings: Homo sapiens, read-out: Percent Inhibition
In short: as §1

[7] = test system: CCF-STTG1; settings: Homo sapiens, read-out: Percent Inhibition
In short: as §1

[8] = test system: CW-2; settings: Homo sapiens, read-out: Percent Inhibition
In short: as §1

[9] = test system: Colo 205; settings: Homo sapiens, read-out: Percent Inhibition
In short: as §1

[10] = test system: HCC1395; settings: Homo sapiens, read-out: Percent Inhibition
In short: as §1

[11] = test system: HCC1599; settings: Homo sapiens, read-out: Percent Inhibition
In short: as §1

[12] = test system: HCC1937; settings: Homo sapiens, read-out: Percent Inhibition
In short: as §1

[13] = test system: HEC-1-A; settings: Homo sapiens, read-out: Percent Inhibition
In short: as §1

[14] = test system: HGC-27; settings: Homo sapiens, read-out: Percent Inhibition
In short: as §1

[15] = test system: HPAF-II; settings: Homo sapiens, read-out: Percent Inhibition
In short: as §1

[16] = test system: J82; settings: Homo sapiens, read-out: Percent Inhibition
In short: as §1

[17] = test system: MSTO-211-H; settings: Homo sapiens, read-out: Percent Inhibition
In short: as §1

[18] = test system: NCI-H1623; settings: Homo sapiens, read-out: Percent Inhibition
In short: as §1

[19] = test system: NCI-H1770; settings: Homo sapiens, read-out: Percent Inhibition
In short: as §1

[20] = test system: NCI-H2405; settings: Homo sapiens, read-out: Percent Inhibition
In short: as §1

[21] = test system: NCI-H28; settings: Homo sapiens, read-out: Percent Inhibition
In short: as §1

[22] = test system: NCI-H524; settings: Homo sapiens, read-out: Percent Inhibition
In short: as §1

[23] = test system: Panc 03.27; settings: Homo sapiens, read-out: Percent Inhibition
In short: as §1

[24] = test system: SW13; settings: Homo sapiens, read-out: Percent Inhibition
In short: as §1

[25] = test system: T47D; settings: Homo sapiens, read-out: Percent Inhibition
In short: as §1

[26] = test system: T98G; settings: Homo sapiens, read-out: Percent Inhibition
In short: as §1

[27] = test system: TCCSUP; settings: Homo sapiens, TCC-SUP, read-out: Percent Inhibition
In short: as §1

[28] = test system: ZR-75-30; settings: Homo sapiens, read-out: Percent Inhibition
In short: as §1

[29] = A498 (listed under Lung), 20 micromolar, 72 hrs
[30] = A704 (Kidney), 20 micromolar, 72 hrs
[31] = BT-474 (Breast), 20 micromolar, 72 hrs
[32] = Bel-7402 (Liver), 20 micromolar, 72 hrs
[33] = C3A (Liver), 20 micromolar, 72 hrs
[34] = C8166 (Leukemia), 20 micromolar, 72 hrs
[35] = CCF-STTG1 (Brain), 20 micromolar, 72 hrs
[36] = CW-2 (Colon), 20 micromolar, 72 hrs
[37] = Colo 205, 20 micromolar, 72 hrs
[38] = HCC1395 (Breast), 20 micromolar, 72 hrs
[39] = HCC1599 (Breast), 20 micromolar, 72 hrs
[40] = HCC1937 (Breast), 20 micromolar, 72 hrs
[41] = HEC-1-A (Uterus), 20 micromolar, 72 hrs
[42] = HGC-27 (Stomach), 20 micromolar, 72 hrs
[43] = HPAF-II (Pancreas), 20 micromolar, 72 hrs
[44] = J82 (Urinary bladder), 20 micromolar, 72 hrs
[45] = MSTO-211-H (Lung), 20 micromolar, 72 hrs
[46] = NCI-H1623 (Lung), 20 micromolar, 72 hrs
[47] = NCI-H1770 (Lung), 20 micromolar, 72 hrs
[48] = NCI-H2405 (Lung), 20 micromolar, 72 hrs
[49] = NCI-H28 (Lung), 20 micromolar, 72 hrs
[50] = NCI-H524 (Lung), 20 micromolar, 72 hrs
[51] = PANC-03-27, Panc 03.27 (Pancreas), 20 micromolar, 72 hrs
[52] = SW13 (Adrenal gland), 20 micromolar, 72 hrs
[53] = T47D (Breast), 20 micromolar, 72 hrs
[54] = T98G (Brain), 20 micromolar, 72 hrs
[55] = TCCSUP (Urinary bladder), 20 micromolar, 72 hrs
[56] = ZR-75-30 (Breast), 20 micromolar, 72 hrs

CC(C)=CCC/C(C)=C/Cc1c(O)c(CC=C(C)C)c2c(c1O)C(=O)C1=C[C@@H]3C[C@H]4C(C)(C)O[C@@](C/C=C(\C)C=O)(C3=O)[C@@]14O2 [GB49]
inhibition at 20 µM [1, 29]: 88%
inhibition at 20 µM [2, 30]: 98%
inhibition at 20 µM [3, 31]: 99%
inhibition at 20 µM [4, 32]: 98%
inhibition at 20 µM [5, 33]: 97%
inhibition at 20 µM [6, 34]: 99%
inhibition at 20 µM [7, 35]: 99%
inhibition at 20 µM [8, 36]: 99%
inhibition at 20 µM [9, 37]: 100%
inhibition at 20 µM [10, 38]: 99%
inhibition at 20 µM [11, 39]: 99%
inhibition at 20 µM [12, 40]: 99%
inhibition at 20 µM [13, 41]: 99%
inhibition at 20 µM [14, 42]: 98%
inhibition at 20 µM [15, 43]: 98%
inhibition at 20 µM [16, 44]: 98%
inhibition at 20 µM [17, 45]: 99%
inhibition at 20 µM [18, 46]: 99%
inhibition at 20 µM [19, 47]: 99%
inhibition at 20 µM [20, 48]: 99%
inhibition at 20 µM [21, 49]: 97%
inhibition at 20 µM [22, 50]: 100%
inhibition at 20 µM [23, 51]: 98%
inhibition at 20 µM [24, 52]: 99%
inhibition at 20 µM [25, 53]: 99%
inhibition at 20 µM [26, 54]: 99%
inhibition at 20 µM [27, 55]: 99%
inhibition at 20 µM [28, 56]: 100%

CC(C)=CCC[C@@]1(C)C=Cc2c(O)c3c(c(C/C=C(\C)CO)c2O1)O[C@]12C(=C[C@@H]4C[C@H]1C(C)(C)O[C@@]2(C/C=C(/C)C(=O)O)C4=O)C3=O [GB40, 35-hydroxyepigambogic acid]
inhibition at 20 µM [1, 29]: 98%
inhibition at 20 µM [2, 30]: 98%
inhibition at 20 µM [3, 31]: 99%
inhibition at 20 µM [4, 32]: 99%
inhibition at 20 µM [5, 33]: 98%
inhibition at 20 µM [6, 34]: 99%
inhibition at 20 µM [7, 35]: 99%
inhibition at 20 µM [8, 36]: 99%
inhibition at 20 µM [9, 37]: 99%
inhibition at 20 µM [10, 38]: 98%
inhibition at 20 µM [11, 39]: 99%
inhibition at 20 µM [12, 40]: 99%
inhibition at 20 µM [13, 41]: 99%
inhibition at 20 µM [14, 42]: 99%
inhibition at 20 µM [15, 43]: 99%
inhibition at 20 µM [16, 44]: 99%
inhibition at 20 µM [17, 45]: 98%
inhibition at 20 µM [18, 46]: 99%
inhibition at 20 µM [19, 47]: 99%
inhibition at 20 µM [20, 48]: 99%
inhibition at 20 µM [21, 49]: 98%
inhibition at 20 µM [22, 50]: 99%
inhibition at 20 µM [23, 51]: 99%
inhibition at 20 µM [24, 52]: 98%
inhibition at 20 µM [25, 53]: 99%
inhibition at 20 µM [26, 54]: 99%
inhibition at 20 µM [27, 55]: 99%
inhibition at 20 µM [28, 56]: 99%

CC(C)=CCC/C(C)=C/Cc1c(O)c(CC=C(C)C)c2c(c1O)C(=O)C1=C[C@@H]3C[C@H]4C(C)(C)O[C@@](CC=C(C)C)(C3=O)[C@@]14O2 [GB32]
inhibition at 20 µM ([1]; A498, 72 h): 98%
inhibition at 20 µM ([2]; A704, 72 h): 99%
inhibition at 20 µM ([3]; BT-474, 72 h): 99%
inhibition at 20 µM ([4]; Bel-7402, 72 h): 99%
inhibition at 20 µM ([5]; C3A, 72 h): 99%
inhibition at 20 µM ([6]; C8166, 72 h): 99%
inhibition at 20 µM ([7]; CCF-STTG1, 72 h): 99%
inhibition at 20 µM ([8]; CW-2, 72 h): 99%
inhibition at 20 µM ([9]; COLO 205, 72 h): 99%
inhibition at 20 µM ([10]; HCC1395, 72 h): 99%
inhibition at 20 µM ([11]; HCC1599, 72 h): 100%
inhibition at 20 µM ([12]; HCC1937, 72 h): 99%
inhibition at 20 µM ([13]; HEC-1-A, 72 h): 99%
inhibition at 20 µM ([14]; HGC-27, 72 h): 99%
inhibition at 20 µM ([15]; HPAF-II, 72 h): 99%
inhibition at 20 µM ([16]; J82, 72 h): 99%
inhibition at 20 µM ([17]; MSTO-211H, 72 h): 99%
inhibition at 20 µM ([18]; NCI-H1623, 72 h): 99%
inhibition at 20 µM ([19]; NCI-H1770, 72 h): 99%
inhibition at 20 µM ([20]; NCI-H2405, 72 h): 99%
inhibition at 20 µM ([21]; NCI-H28, 72 h): 99%
inhibition at 20 µM ([22]; NCI-H524, 72 h): 99%
inhibition at 20 µM ([23]; PANC-03-27, 72 h): 99%
inhibition at 20 µM ([24]; SW13, 72 h): 99%
inhibition at 20 µM ([25]; T47D, 72 h): 99%
inhibition at 20 µM ([26]; T98G, 72 h): 99%
inhibition at 20 µM ([27]; 72 h): 99%
inhibition at 20 µM ([28]; ZR-75-30, 72 h): 99%
